The supplement of paper PMC4862054

Key:
Conditions in all cases: incubation time: 72 h
[1] = system: CAL-51; assay: normalised response (% of control), CellTox Green; higher = less cell death (100 = DMSO, 0 = benzethonium chloride kill control)
Method in brief: (§1)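 Breast cancer cell lines, seeded at 20 µl suspension per well, were incubated for 72 h in 384-well plates containing compound at 5 concentrations. These concentrations rose in 10-fold steps over a 10,000-fold range set for each compound. CellTox Green fluorescence (485/520 nm) was read, then CellTiter-Glo luminescence after 10 min at room temperature, and each plate was normalised to 0.1 % DMSO (100) and a positive kill control (0). Values are normalised signals, each at one concentration.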

[2] = system: HCC1937; assay: as above
Method in brief: as §1

[3] = system: MDA-MB-231; assay: as above
Method in brief: as §1

[4] = system: MFM-223; assay: as above
Method in brief: as §1

[5] = system: BT-474; assay: normalised response (% of control), CellTiter-Glo; higher = more viable cells (100 = DMSO, 0 = benzethonium chloride kill control)
Method in brief: as §1

[6] = system: BT-549; assay: as above
Method in brief: as §1

[7] = system: DU-4475; assay: as above
Method in brief: as §1

[8] = system: HCC1937; assay: as above
Method in brief: as §1

[9] = system: SK-BR-3; assay: as above
Method in brief: as §1

[10] = system: BT-474; assay: normalised response (% of control), CellTiter-Glo; higher = more viable cells (100 = DMSO, 0 = benzethonium chloride kill control); remark: listed apart in the source
Procedure: (§2)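 DSRT, 72 h incubation, CellTox Green / CellTiter-Glo readout. Signal is normalised to DMSO and benzethonium chloride controls. Value is the normalised response at the highest dose.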

[11] = system: BT-549; assay: as above; remark: listed apart in the source
Procedure: as §2

[12] = system: CAL-120; assay: as above
Procedure: as §2

[13] = system: CAL-148; assay: as above
Procedure: as §2

[14] = system: CAL-51; assay: as above
Procedure: as §2

[15] = system: CAL-85-1; assay: as above
Procedure: as §2

[16] = system: DU-4475; assay: as above; remark: listed apart in the source
Procedure: as §2

[17] = system: HCC1143; assay: as above
Procedure: as §2

[18] = system: HCC1599; assay: as above
Procedure: as §2

[19] = system: HCC1937; assay: as above; remark: listed apart in the source
Procedure: as §2

[20] = system: HDQ-P1; assay: as above
Procedure: as §2

[21] = system: Hs578T; assay: as above
Procedure: as §2

[22] = system: MCF-10A; assay: as above
Procedure: as §2

[23] = system: MDA-MB-231; assay: as above
Procedure: as §2

[24] = system: MDA-MB-436; assay: as above
Procedure: as §2

[25] = system: MDA-MB-453; assay: as above
Procedure: as §2

[26] = system: MDA-MB-468; assay: as above
Procedure: as §2

[27] = system: MFM-223; assay: as above
Procedure: as §2

[28] = system: SK-BR-3; assay: as above; remark: listed apart in the source
Procedure: as §2

Structure (SMILES)	normalised response [1] [%]	normalised response [2] [%]	normalised response [3] [%]	normalised response [4] [%]	normalised response [5] [%]	normalised response [6] [%]	normalised response [7] [%]	normalised response [8] [%]	normalised response [9] [%]	normalised response [10] [%]	normalised response [11] [%]	normalised response [12] [%]	normalised response [13] [%]	normalised response [14] [%]	normalised response [15] [%]	normalised response [16] [%]	normalised response [17] [%]	normalised response [18] [%]	normalised response [19] [%]	normalised response [20] [%]	normalised response [21] [%]	normalised response [22] [%]	normalised response [23] [%]	normalised response [24] [%]	normalised response [25] [%]	normalised response [26] [%]	normalised response [27] [%]	normalised response [28] [%]
NC(=O)c1ccc(I)c([N+](=O)[O-])c1 [Iniparib] (1000 nM)	90.7	63.7	98.8	96.7	90	101	92.3	97.7	78	–	–	–	–	–	–	–	–	–	–	–	–	–	–	–	–	–	–	–
NC(=O)c1ccc(I)c([N+](=O)[O-])c1 [Iniparib] (10000 nM)	83.7	107	–	95.6	–	–	–	–	–	91	96.5	98.2	88.8	84.7	116	90.2	92.1	88	86.9	96.3	95.5	76.3	93.9	73.3	73.2	79	80	71.1
CCc1c2c(nc3ccc(OC(=O)N4CCC(N5CCCCC5)CC4)cc13)-c1cc3c(c(=O)n1C2)COC(=O)[C@]3(O)CC [Irinotecan] (1000 nM)	61.9	123	113	101	91	78.2	82.1	91.8	78.8	–	–	–	–	–	–	–	–	–	–	–	–	–	–	–	–	–	–	–
Oc1ccc2c(c1)CC[C@H](c1ccccc1)[C@@H]2c1ccc(OCCN2CCCC2)cc1 [Lasofoxifene] (100 nM)	123	113	125	–	104	95.8	95.7	96	113	–	–	–	–	–	–	–	–	–	–	–	–	–	–	–	–	–	–	–
Cc1ccc(NC(=O)c2ccc(CN3CCN(C)CC3)cc2)cc1Nc1nc(-c2cccnc2)cs1 [Masitinib] (1000 nM)	103	113	114	89.7	104	92.9	103	101	105	–	–	–	–	–	–	–	–	–	–	–	–	–	–	–	–	–	–	–
O=C(Nc1cccnc1)N1CCC(Cc2cccc(Oc3ccc(C(F)(F)F)cn3)c2)CC1 [PF-3845] (1000 nM)	117	124	116	102	99.2	98.3	98.3	99	101	–	–	–	–	–	–	–	–	–	–	–	–	–	–	–	–	–	–	–
Cc1[nH]c2ccccc2c1CCNCc1ccc(/C=C/C(=O)NO)cc1 [Panobinostat] (100 nM)	-3.76	-55.9	-11.6	71.4	13.4	46.2	4.91	63.1	1.76	–	–	–	–	–	–	–	–	–	–	–	–	–	–	–	–	–	–	–
COCC1(CO)C(=O)C2CCN1CC2 (centres undefined) [Prima-1 Met] (1000 nM)	111	120	98.3	89.9	102	96.8	105	92.2	101	–	–	–	–	–	–	–	–	–	–	–	–	–	–	–	–	–	–	–
COCC1(CO)C(=O)C2CCN1CC2 (centres undefined) [Prima-1 Met] (10000 nM)	115	–	123	93.1	–	–	–	–	–	97.1	53.3	100	110	130	102	106	98	108	101	96.7	97.4	106	97.6	97.7	93.1	91.3	103	106
CNC(=O)c1cc(Oc2ccc(NC(=O)Nc3ccc(Cl)c(C(F)(F)F)c3)c(F)c2)ccn1 [Regorafenib] (1000 nM)	87.7	122	115	102	91.8	105	97.3	103	102	–	–	–	–	–	–	–	–	–	–	–	–	–	–	–	–	–	–	–
c1ccc2c(CCNc3ccc(Nc4ccncc4)cc3)c[nH]c2c1 [Serdemetan] (1000 nM)	-44.2	–	93.9	97.8	76.4	84.2	90.3	88.5	79.6	–	–	–	–	–	–	–	–	–	–	–	–	–	–	–	–	–	–	–
CN(C)CCOc1ccc(/C(=C(/CCCl)c2ccccc2)c2ccccc2)cc1 [Toremifene] (1000 nM)	102	110	–	92.4	98.7	104	98.3	96.7	106	–	–	–	–	–	–	–	–	–	–	–	–	–	–	–	–	–	–	–
CC(C)C[C@@H](C(=O)N[C@H](C(=O)OC1CCCC1)c1ccccc1)[C@H](O)C(=O)NO [Tosedostat] (1000 nM)	52.9	90.1	14.7	31.9	40.6	55.9	88.4	67.4	76.2	–	–	–	–	–	–	–	–	–	–	–	–	–	–	–	–	–	–	–
COCC[n+]1c2c(n(Cc3cnccn3)c1C)C(=O)c1ccccc1C2=O [YM155] (1000 nM)	4.79	9.52	-31.1	55.1	0.29	-0.05	1.45	0.41	-0.16	–	–	–	–	–	–	–	–	–	–	–	–	–	–	–	–	–	–	–
